Test results taken from article PMC10447463, “Data-mining unveils structure–property–activity correlation of viral infectivity enhancing self-assembling peptides” (Nature Communications, 2023).
Read-outs that look alike come from different tables or passages of the source.

Experiments:
[1] = type: physicochemical; design: key to Fibril / Fibril Formation / TEM 2cat / Fibril: 1 = fibrils present; 0 non-fibrillar structures; details: for Fibril / Fibril Formation: 1 mg/mL, uranyl acetate stain, qualitative
[2] = Zeta-potential measurement; type: physicochemical; details: for Zeta pot. / mV: 1 mg/mL in PBS pH 7.4 from 10 mg/mL DMSO stock, 1 d RT, 60 µL diluted in 600 µL 1 mM KCl, Zetasizer Nano ZS, Smoluchowski, mean of triplicate
Procedure, shortened: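 Surface charge of aggregated peptides: 1 mg/mL solutions in PBS (pH 7.4) incubated 1 d at RT, diluted into 1 mM KCl just before reading. Electrophoretic mobility converted to zeta potential by the Smoluchowski formula; triplicate measurements from two separate experiments averaged.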

[3] = β-sheet content by ATR-FT-IR; type: physicochemical; details: for b -sheet / %: Fig. S7 panel A, β-sheet content by ATR-FT-IR; for ß-sheet / %: ATR-FT-IR of lyophilised 1 mg/mL PNF solution, peak integral ratio 1625-1635 cm-1, measured once; for beta sheet: peptides with TEM 2cat 0
Protocol: For ATR FT–IR spectroscopy measurements, 200 µL of the respective 1 mg/mL PNF solution was lyophilized and the resulting powder used for measurement. All spectra were recorded on a Bruker Tensor 27 spectrometer with a diamond crystal as ATR element (PIKE MiracleTM, spectral resolution 2 cm^-1). Every sample was measured with 64 scans. Data were analyzed with OriginLab software and calculation of β–sheet content was conducted according to a previous report. TEM. For TEM measurements 5 µL of PNF fibrils (1 mg/mL) were placed on copper grids coated with carbon and formvar layer (300 mesh, Plano GmbH). After 10 min incubation time, the grids were staining with 4% uranyl acetate solution for 2.5 min and washed with water. Measurements were performed on a Jeol 1400 electron microscope with 120 kV acceleration voltage. CR Assay. For the determination of the amount of peptide monomer converting into nanostructures the amine reactive dye fluorescamine was used analogous to a previous reported protocol. Briefly, 100 µL of the preformed PNF solution was centrifuged in a Vivaspin 500 tube (3 kDa MWCO) to separate fibers from free peptide monomer (16200 x g, 4 °C, 45 min). The filtrate and 100 μL of the non-filtered PNF sample were lyophilized and dissolved in 30 μL DMSO. 10 μL of the filtrate and non-filtered DMSO samples were submitted in a black UV Star® 384 microliter well–plates (Greiner bio–one) and 3 μL of the fluorescamine solution (10 mg/mL, DMSO) was added to measure the fluorescence enhancement. After 20 min of incubation at RT, fluorescence was recorded on an Infinite® M1000 PRO microplate reader (Tecan) at λem = 470 nm upon excitation at λex = 365 nm with 10 nm bandwidths and multiple reads per well (3×3). Measurements were repeated in triplicates and averaged with standard deviation. All values were calculated as n-fold fluorescence enhancement (DMSO only as a reference was set to 1). The conversion rate CR was defined according to the equation Eq. (3).3 CR=100−100×fluorescenceintensityfiltrate/fluorescenceintensityoriginal[%]

[4] = Fig S10 panel D, fibril category by TEM
[5] = TEM, 1 = fibrils present, 0 = non-fibrillar
[6] = TEM, 1 = fibrils present, 0 = non-fibrillar structures
[7] = category: fibrils present or non-fibrillar
[8] = zeta-potential of peptide, source data of Figure 2C
[9] = zeta-potential of the peptide assemblies, mean, Figure 3A source data
[10] = FigS12 panel A, fibril category by TEM
[11] = zeta potential of peptide assemblies

Substance	TEM 2cat [1, 4]	Fibril / Fibril Formation ([1]; TEM)	Fibril [1, 5]	Fibril [1, 6]	TEM 2cat [1, 7]	Zeta-Pot. [2]	Zeta-Potential / mV [2, 8] [mV]	Zeta-Potential / mV [2, 9] [mV]	b -sheet / % [3] [%]	TEM 2cat [1, 10]	Fibril ([1]; FigS12 panel B, TEM)	Fibril ([1]; Fig S10 panel E)	Zeta-Pot. [2, 11]	other results
KFKQFFINMWQ	1	1	1	1	1	7.99	10.28	7.99	38.37					
KIKIQINMWQRGD	0	0	0	0		1.69	-0.495	1.69	47.72	0	0			Zeta pot. / mV [2]: 1.7 mV; ß-sheet / % [3]: 48%
KIKIKIQI	1	1	1	1			9.885	6.97	40.16	1	1	1	6.97	
CKIKIQI	1	1	1	1	1		13.2	12.8	53			1	12.8	Zeta pot. / mV [2]: 12.8 mV; FTIR ß-sheet content [3]: 53%
KIKQII	0	0	0	0			-6.459	-12.67	38.67	0	0	0	-12.67	
CKFKQFFNM		1	1	1	1	15.2	15.05	15.2	41.58					TEM 2cat ([1]; Fig S10 panel D): 1
KIKIQIII	1	1	1	1	1		19.13	19.8	45.8425			1	19.8	
KIKIQIRGD	1	1	1	1			4.47	6.43	47.12	1	1		6.43	
KIKIQIMQWN	1	1	1	1	1	9.44	8.94	9.44	40.38					
KIEIQINM	1	1	1	1			-6.992	-0.35	42.99	1	1		-0.35	
CEFEFQFNMWQ	1	1	1	1	1		-24.5	-34.23	51.48			1	-34.23	
RGDSGGGGGGKIKIQIC	1	1	1	1	1		16.7	16.7	40.62			1	16.7	
EIKIQINM	1	1	1	1		-22.33	-20.62	-22.33	48.03	1	1	1		
CKAKAQANMWQ		0	0	0		0.7373	2.155	0.74	39.38	0	0	0		TEM 2cat ([1]; Fig S10 panel D): 0; Zeta pot. / mV [2]: 0.7 mV; ß-sheet / % [3]: 39%
HHHHKIKIKIKIWWWW	0	0	0	0	0		14.42	14.5	48.8			0	14.5	beta sheet [3]: 49
HHHHKAKAKAKAWWWW	0	0	0	0		17.4	12.25	17.4	40.26	0	0			
KLKLQLL	1	1	1	1			-3.1875	-4.93	39.56	1	1		-4.93	
RGDSKIKIQIC	1	1	1	1	1		15.65	15.1	38.56			1	15.1	
KIKIQINMWWQ	0	0	0	0	0	11.8	13.17	11.8	50.48					beta sheet [3]: 50
KFKFQFN		1	1	1		12.7	10.12	12.7	38.13	1	1			TEM 2cat ([1]; Fig S10 panel D): 1; Zeta pot. / mV [2]: 12.7 mV; ß-sheet / % [3]: 38%
EIEIQINM	1	1	1	1		-23.33	-21.58	-23.33	53.87	1	1	1		
HHHHKIKIKIKIWWWW [TM4]														TEM: 1= fibrils, 0= aggregates (micelle), 0.5 = aggregates and fibrils, -1 = nothing obersved, STD prep ([1]; STD prep): 0.5; Zeta Pot. / mV [2]: 14.5 mV; Zeta category ( +1 = if > 4 mV;-1 = if < -4 mV; 0 = -4mV to 4 mV) [2]: 1 (+1 = if > 4 mV); Zeta-pot. / mV ([2]; zeta potential of peptide, Fig S15 source data): 14.5 mV
CKIKQIIRGD		0	0	0			13.2	13.2			0		13.2	
RGDKIKIQINMC		1	1	1	1		13.9	12.2					12.2	
